According to patent publication US6737383B1, “Herbicidal oxadiazolidines” (priority 1999, dated 2004):

Columns and labels:
bedstraw = experiment: Test B pre/postemergence bedstraw; type: in vivo, Galium aparine; conditions: for Bedstraw plant response rating: 10 is complete control
Method in brief: (§1)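 Response is a visual 0-to-10 score relative to untreated plants, where 0 means no effect and 10 means complete control, taken twelve to sixteen days after application. Treatments went onto soil at planting and onto foliage of 1- to 4-leaf plants, using a surfactant-containing non-phytotoxic solvent.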

blackgrass = experiment: Test B pre/postemergence blackgrass; type: in vivo, Alopecurus myosuroides
Method in brief: as §1

surinam grass = experiment: Test B pre/postemergence surinam grass; type: in vivo, Brachiaria decumbens
Method in brief: as §1

cocklebur = experiment: Test B pre/postemergence cocklebur; type: in vivo, Xanthium strumarium
Method in brief: as §1

corn = experiment: Test B pre/postemergence corn; type: in vivo, Zea mays
Method in brief: as §1

crabgrass = experiment: Test B pre/postemergence crabgrass; type: in vivo, Digitaria sanguinalis
Method in brief: as §1

giant foxtail = experiment: Test B pre/postemergence giant foxtail; type: in vivo, Setaria faberii
Method in brief: as §1

morningglory = experiment: Test B pre/postemergence morningglory; type: in vivo, Ipomoea hederacea
Method in brief: as §1

pigweed = experiment: Test B pre/postemergence pigweed; type: in vivo, Amaranthus retroflexus
Method in brief: as §1

rape = experiment: Test B pre/postemergence rape; type: in vivo, Brassica napus
Method in brief: as §1

soybean = experiment: Test B pre/postemergence soybean; type: in vivo, Glycine max
Method in brief: as §1

sugar beet = experiment: Test B pre/postemergence sugar beet; type: in vivo, Beta vulgaris
Method in brief: as §1

velvetleaf = experiment: Test B pre/postemergence velvetleaf; type: in vivo, Abutilon theophrasti
Method in brief: as §1

wheat = experiment: Test B pre/postemergence wheat; type: in vivo, Triticum aestivum
Method in brief: as §1

wild oat = experiment: Test B pre/postemergence wild oat; type: in vivo, Avena fatua
Method in brief: as §1

purple nutsedge = experiment: Test B pre/postemergence purple nutsedge; type: in vivo, Cyperus rotundus
Method in brief: as §1

[1] = Preemergence, Rate 62 g/ha, scale of 0 to 10 where 0 is no effect and 10 is complete control
[2] = Postemergence, Rate 62 g/ha, scale of 0 to 10, 0 is no effect, 10 is complete control
[3] = Postemergence, Rate 125 g/ha, scale 0 to 10, 0 is no effect, 10 is complete control
[4] = Postemergence, Rate 250 g/ha, scale 0 to 10
[5] = Postemergence, Rate 500 g/ha, scale 0 to 10, 0 is no effect, 10 is complete control
[6] = Preemergence, Rate 125 g/ha, scale 0 to 10, 0 is no effect, 10 is complete control
[7] = Preemergence, Rate 250 g/ha, scale 0 to 10, 0 is no effect, 10 is complete control
[8] = Preemergence, Rate 500 g/ha, scale of 0 to 10 where 0 is no effect and 10 is complete control

COC(=O)CCCn1c(=O)on(C(=O)N(c2ccc(F)cc2F)C(C)C)c1=O [Compound 513]
5: B. signalgrass plant response rating (surinam grass; [7]) | Crabgrass plant response rating (crabgrass; [8]) | Giant foxtail plant response rating (giant foxtail; [3]) | Soybean plant response rating (soybean; [8]) | Wheat plant response rating (wheat; [3]) | Plant response rating, Nutsedge (purple nutsedge; [5])
1: Plant response rating, Blackgrass (blackgrass; [1]) | Crabgrass plant response rating (crabgrass; [2]) | Giant foxtail plant response rating (giant foxtail; [2]) | Soybean plant response rating (soybean; [2])
9: B. signalgrass plant response rating (surinam grass; Preemergence, Rate 500 g/ha, scale 0 to 10, 0 is no effect, 10 is complete control) | Plant response rating, Crabgrass (crabgrass; [5]) | Plant response rating, Morningglory (morningglory; [5])
8: Blackgrass plant response rating (blackgrass; [4]) | Plant response rating, Blackgrass (blackgrass; [5]) | Plant response rating, B. signalgrass (surinam grass; [5]) | Plant response rating, Giant foxtail (giant foxtail; [5]) | Plant response rating, Soybean (soybean; [5])
4: Bedstraw plant response rating (bedstraw; Preemergence, Rate 500 g/ha, scale 0 to 10, 0 is no effect) | Blackgrass plant response rating (blackgrass; [2]) | Blackgrass plant response rating (blackgrass; [3]) | Blackgrass plant response rating (blackgrass; [6]) | Blackgrass plant response rating (blackgrass; [7]) | Corn plant response rating (corn; [8]) | Crabgrass plant response rating (crabgrass; [3]) | Plant response rating, Crabgrass (crabgrass; [1]) | Crabgrass plant response rating (crabgrass; [6]) | Rape plant response rating (rape; [3]) | Sugarbeets plant response rating (sugar beet; [3]) | Wild oats plant response rating (wild oat; [3])
3: B. signalgrass plant response rating (surinam grass; [3]) | Cocklebur plant response rating (cocklebur; [2]) | Cocklebur plant response rating (cocklebur; [3]) | Plant response rating, Corn (corn; [5]) | Morningglory plant response rating (morningglory; [2]) | Morningglory plant response rating (morningglory; [3]) | Morningglory plant response rating (morningglory; [8]) | Redroot pigweed plant response rating (pigweed; [2]) | Velvetleaf plant response rating (velvetleaf; [2]) | Velvetleaf plant response rating (velvetleaf; [3]) | Wheat plant response rating (wheat; [2]) | Plant response rating, Wild oats (wild oat; [1]) | Wild oats plant response rating (wild oat; [6])
7: Plant response rating, Cocklebur (cocklebur; [5]) | Plant response rating, Redroot pigweed (pigweed; [5]) | Plant response rating, Redroot pigweed (pigweed; [1]) | Redroot pigweed plant response rating (pigweed; [6]) | Plant response rating, Rape (rape; [5]) | Rape plant response rating (rape; [8]) | Soybean plant response rating (soybean; [3]) | Plant response rating, Sugarbeets (sugar beet; [5]) | Plant response rating, Velvetleaf (velvetleaf; [5]) | Wheat plant response rating (wheat; [8])
2: Plant response rating, Giant foxtail (giant foxtail; [1]) | Rape plant response rating (rape; [6]) | Sugarbeets plant response rating (sugar beet; [2]) | Wheat plant response rating (wheat; [6])
6: Bedstraw plant response rating (bedstraw; Postemergence, Rate 62 g/ha, scale of 0 to 10, 0 is no effect) | B. signalgrass plant response rating (surinam grass; Postemergence, Rate 250 g/ha, scale 0 to 10, 0 no effect, 10 complete control) | Cocklebur plant response rating (cocklebur; [4]) | Crabgrass plant response rating (crabgrass; [4]) | Giant foxtail plant response rating (giant foxtail; [6]) | Redroot pigweed plant response rating (pigweed; [3]) | Plant response rating, Wheat (wheat; [5]) | Plant response rating, Wild oats (wild oat; [5])
10: Blackgrass plant response rating (blackgrass; [8]) | Giant foxtail plant response rating (giant foxtail; [8]) | Redroot pigweed plant response rating (pigweed; [8]) | Wild oats plant response rating (wild oat; [8])
0: Plant response rating, Bedstraw (bedstraw; [1]) | Bedstraw plant response rating (bedstraw; Preemergence, Rate 250 g/ha, scale 0 to 10, 0 is no effect) | B. signalgrass plant response rating (surinam grass; [2]) | Plant response rating, B. signalgrass (surinam grass; [1]) | B. signalgrass plant response rating (surinam grass; [6]) | Plant response rating, Cocklebur (cocklebur; [1]) | Cocklebur plant response rating (cocklebur; [6]) | Cocklebur plant response rating (cocklebur; [7]) | Cocklebur plant response rating (cocklebur; [8]) | Corn plant response rating (corn; [2]) | Corn plant response rating (corn; [3]) | Corn plant response rating (corn; [4]) | Plant response rating, Corn (corn; [1]) | Corn plant response rating (corn; [6]) | Plant response rating, Morningglory (morningglory; [1]) | Morningglory plant response rating (morningglory; [6]) | Rape plant response rating (rape; [2]) | Plant response rating, Rape (rape; [1]) | Plant response rating, Soybean (soybean; [1]) | Soybean plant response rating (soybean; [6]) | Plant response rating, Sugarbeets (sugar beet; [1]) | Sugarbeets plant response rating (sugar beet; [6]) | Sugarbeets plant response rating (sugar beet; [8]) | Plant response rating, Velvetleaf (velvetleaf; [1]) | Velvetleaf plant response rating (velvetleaf; [6]) | Velvetleaf plant response rating (velvetleaf; [8]) | Plant response rating, Wheat (wheat; [1]) | Wild oats plant response rating (wild oat; [2]) | Nutsedge plant response rating (purple nutsedge; [2]) | Nutsedge plant response rating (purple nutsedge; [3]) | Plant response rating, Nutsedge (purple nutsedge; [1]) | Nutsedge plant response rating (purple nutsedge; [6]) | Nutsedge plant response rating (purple nutsedge; [8])
